Patent publication US11325907B2, “Crystal form of 1H-imidazo[4,5-b]pyridine-2(3H)-one compound and preparation process therefor” (MEDSHINE DISCOVERY INC., priority 2018, dated 2022)

How the values were obtained:
[1] = test system: collagen-induced arthritis in mice; experiment: In vivo CIA model (collagen-induced arthritis); parameters: species or system DBA/1 mice; Average clinical symptom score: dose or concentration left out as unconfirmed; key to Total pathological score (both hind limbs): each of 4 joint-damage aspects scored 0-4, summed over both hind limbs; conditions: for Total pathological score (both hind limbs): day 38, Mean±SEM
Description: A series of symptoms similar to human psoriatic arthritis, such as redness and swelling of the joint, articular cartilage damage, and capsula articularis damage are elicited in the model by injection of type II collagen to activate reactivity of B cells, T cell on bone collagen, and the activated B cells and T cells enter the joints to cause joint inflammation. During pre-clinical evaluation of candidate compounds for treating psoriatic arthritis, collagen-induced arthritis in mice is often used to evaluate the effectiveness.
The purpose of this experiment was to study the therapeutic effect of Compound 1 on collagen-induced arthritis in mice, so as to provide preclinical pharmacodynamic relevant information for subsequent clinical studies.
1. Type II collagen/complete Freund's adjuvant immunization
Preparation of acetic acid: Diluting acetic acid to 100 mM, which was filtered with 0.22 um filter membrane and stored at 4° C.
Bovine type II collagen solution: Dissolving bovine type II collagen (CII) in acetic acid solution, which was stored at 4° C. overnight.
Preparation of emulsion: Mixing the CII solution stored overnight with equal volume of the complete Freund's adjuvant and homogenize the mixture with high-speed homogenizer until the solution formed a stable emulsion.
Preparation of lipopolysaccharide (LPS): Weighing LPS, adding normal saline, and mixing until a stable solution with concentration of […] was formed.
The mice were randomly assigned to different treatment groups. The day of the first immunization was recorded as day 0, and the subsequent days were marked sequentially.
After DBA/1 mice were anesthetized with isoflurane, the prepared collagen emulsion was injected subcutaneously in the tail.
On day 23, 100 μl of LPS solution was injected intraperitoneally.
On day 27, when the average clinical score reached about 1, 60 mice with moderate onset were selected, and they were re-randomized according to body weight and score, with 10 mice in each group.
Dexamethasone as positive control drug in 0.3 mg/kg dose group is commonly used in the CIA model. In addition, the relevant dose design of Compound 1 and the control compound Apremilast were determined according to the results of earlier preliminary experiments. Group 1 was normal mice without any treatment; Group 2 was vehicle control group and was administered vehicle; Group 3 was administered dexamethasone at a dose of 0.3 mg/kg; Group 4 was administered Apremilast at a dose of 5 mg/kg; Group 5, Group 6, and Group 7 were administered Compound 1 with doses of 0.3, 1, and 3 mg/kg, respectively. Administration was given once a day for 11 days in total. The volume of intragastric administration was 10 ml/kg.
Clinical observation: From 7 days before immunization to 23 days after immunization, the basic health status and body weight changes of DBA/1 mice were observed daily (recorded once a week). After the 23rd day, the health status, morbidity and body weight change of the mice were observed daily (recorded at least three times a week) until the end of the experiment.
Clinical score: After LPS injection, the morbidities of mice were observed every day. After the onset of disease in mice (clinical symptoms of arthritis), they were scored according to severity of conditions (redness and swelling, joint deformation) according to 0-4 point standard, with a maximum score of 4 for each limb, and a maximum score of 16 for each animal. At least three times of scoring were performed a week.
Pathology: On day 38, the mouse was euthanized. The two posterior limbs of the mouse were taken, soaked with 10% formalin solution, decalcified with formic acid solution, embedded with paraffin, sectioned, stained with hematoxylin-eosin (HE), and observed with photomicrography. The degree of joint damage was evaluated in four aspects: inflammatory cell infiltration, pannus formation, cartilage injury and bone resorption, and scored according to 0-4 score standard. […]

[2] = target: T1, phosphodiesterase 4B subtype (PDE4B) (Homo sapiens, UniProt Q07343); experiment: Inhibitory activity on PDE4B enzyme (fluorescence polarization); type: biochemical
T1 construct: amino acid 305 terminal; GST (N); made in house; host or cells: Sf9 insect cells (baculovirus)
Protocol: This biological experiment based on fluorescence polarization was used to determine AMP/GMP expression, that is, to show enzyme activity by tracking AMP/GMP antibody binding.
Experimental buffer solution: 10 mM Trihydroxymethyl aminomethane-hydrochloric acid buffer solution (Tris-HCl) (pH 7.5), 5 mM MgCl2, 0.01% Polyoxyethylene lauryl ether (Brij 35), 1 mM Dithiothreitol (DTT), and 1% DMSO.
Enzymes: Recombinant humanized PDE4B (Genebank Accession Number NM_002600; amino acid 305 terminal) was expressed with baculovirus in Sf9 insect cells using N-terminal GST tag. MW=78 kDa.
Enzyme substrate: 1 μM cAMP
Detection: Transcreener®AMP2/GMP2 antibody and AMP2/ GMP2 AlexaFluor633 tracing.
• 1. Dissolving the recombinant human PDE4B enzyme and enzyme substrate (1 μM cAMP) in freshly prepared experimental buffer; • 2. Transferring the above PDE4B enzyme buffer solution to reaction wells; • 3. Adding Compound 1 dissolved with 100% DMSO to the reaction well with PDE4B enzyme buffer solution via acoustic technology (echo 550 nanoliter range) and incubating for 10 min at room temperature; • 4. […] The range of fluorescence polarization determination is Ex/Em=620/688.
Data Analysis: The fluorescence polarization signal was converted into nM according to the AMP/GMP standard curve and the control % enzyme activity relative to the DMSO calculated by Excel software. […]

[3] = test system: TNFα production in human peripheral blood mononuclear cells (hPBMC); experiment: Inhibition of LPS-induced TNFα production in hPBMC; type: cell-based
Protocol: The inhibitory activity of Compound 1 of lipopolysaccharide (LPS)-induced TNFα production in human peripheral blood mononuclear cells.
• 1. Collecting normal human whole blood, which was anticoagulated with EDTA-K2 anticoagulation tube; • 2. Separating PBMC with Ficoll density gradient centrifugation, counting and adjusting the cell concentration to 2×10^6/mL; • 3. To U-bottom 96-well plate were added 2×10^5 cells/well, LPS 1 ng/mL was added, various concentrations of compound at 100 μM, 10 μM, 1 μM, 100 nM, 10 nM, 1 nM, 100 pM, 10 pM, 200 μl system/well, in duplicated wells; • 4. Incubating for 24 h, collecting the supernatant; • 5. Detecting the level of TNFα in supernatant with ELISA, fitting the inhibition curve and calculating IC50 with Graphpad Prism software.

[4] = Mus musculus, po, 264 h, 0.3 mg/kg gavage once a day for 11 days, read-out: Inhibition rate of area under the clinical score curve (AUC) relative to vehicle control group

T1 sequence (Q07343 305-736 limits assumed): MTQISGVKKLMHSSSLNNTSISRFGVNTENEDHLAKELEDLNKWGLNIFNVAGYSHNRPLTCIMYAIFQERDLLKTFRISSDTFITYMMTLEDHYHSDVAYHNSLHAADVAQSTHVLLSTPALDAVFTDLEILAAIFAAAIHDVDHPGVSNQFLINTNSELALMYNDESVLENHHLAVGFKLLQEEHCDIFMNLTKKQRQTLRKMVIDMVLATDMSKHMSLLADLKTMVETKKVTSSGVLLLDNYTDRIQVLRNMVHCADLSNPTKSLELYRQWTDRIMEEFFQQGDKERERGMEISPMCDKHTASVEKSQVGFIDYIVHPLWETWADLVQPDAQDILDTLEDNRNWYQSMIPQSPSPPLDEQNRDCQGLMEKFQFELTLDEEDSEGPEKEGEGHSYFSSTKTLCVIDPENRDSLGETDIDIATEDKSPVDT

In vitro activity of inhibiting PDE4B (conclusion) [2]	IC50 ([3]; Homo sapiens, PBMC, LPS 1 ng/mL, 24 h, TNFα in supernatant by ELISA)	SMILES	Decrease of average clinical symptom score compared to vehicle control group ([1]; 5 mg/kg gavage once a day for 11 days, 37th day, p<0.001)	Total pathological score (both hind limbs) ([1]; 5 mg/kg gavage once a day for 11 days, p<0.05 vs vehicle)	inhibition at 5 mg/kg ([1]; Mus musculus, po, 264 h, 5 mg/kg gavage once a day for 11 days, read-out: Inhibition rate of area under the clinical score curve (AUC) relative to vehicle control group)	Average clinical symptom score ([1]; gavage once a day for 11 days, 37th day)	In vitro activity of inhibiting TNFα production in hPBMC (conclusion) [3]	Clinical average score ([1]; 0.3 mg/kg gavage once a day for 11 days, 37th day, p<0.0001 vs vehicle)	Arthritis pathology (conclusion) ([1]; 1 mg/kg and 3 mg/kg dose groups)	Clinical average score ([1]; 1 mg/kg gavage once a day for 11 days, 37th day, p<0.001 vs vehicle)	Total pathological score (both hind limbs) ([1]; 1 mg/kg gavage once a day for 11 days, p<0.05 vs vehicle)	Clinical average score ([1]; 3 mg/kg gavage once a day for 11 days, 37th day, p<0.0001 vs vehicle)	Total pathological score (both hind limbs) ([1]; 3 mg/kg gavage once a day for 11 days, p<0.0001 vs vehicle)	Therapeutic effect (clinical score and arthritis pathological score) compared with Apremilast ([1]; Compound 1 at 3 mg/kg vs Apremilast at 5 mg/kg)	inhibition at 0.3 mg/kg [1, 4]	inhibition at 1 mg/kg ([1]; Mus musculus, po, 264 h, 1 mg/kg gavage once a day for 11 days, read-out: Inhibition rate of area under the clinical score curve (AUC) relative to vehicle control group)	inhibition at 3 mg/kg ([1]; Mus musculus, po, 264 h, 3 mg/kg gavage once a day for 11 days, read-out: Inhibition rate of area under the clinical score curve (AUC) relative to vehicle control group)	Symptoms of the collagen-induced arthritis (conclusion) ([1]; three dose groups of 0.3, 1 and 3 mg/kg)	Clinical score ([1]; 0.3 mg/kg gavage once a day, from the 30th day until the end of the experiment, p<0.0001 vs vehicle)
		CCOc1cc([C@@H](CS(C)(=O)=O)N2C(=O)c3cccc(NC(C)=O)c3C2=O)ccc1OC [Apremilast, reference compound]	3.7	13.90±1.89	41.3%	4.2													
excellent in vitro activity	0.56 nM	CCOc1cc([C@@H](CS(C)(=O)=O)n2c(=O)[nH]c3c(C)c(-c4ccccc4F)cnc32)ccc1OC [Compound 1]					excellent in vitro activity	3.6	significant improvement	4.3	14.00±2.43	3.5	9.20±1.83	better than that of Apremilast at 5 mg/kg	43.9%	39.4%	51.7%	significantly improved	
		C[C@@H]1C[C@H]2[C@@H]3CCC4=CC(=O)C=C[C@]4(C)[C@@]3(F)[C@@H](O)C[C@]2(C)[C@@]1(O)C(=O)CO [Dexamethasone, reference compound]													96.4%				0
